Several values for one entry are separate records, joined by “and”; a condition that tells them apart may be missing. Equal entries are not always repeated. Structures can show the parent of a compound that is named as a salt. Where two headings read alike, the source gives them in different places.

In assay [1] the target is T1, DRD2 (Homo sapiens, UniProt P14416).
Assay [2] addresses T1, DRD2. This is another data set of the same source.
In assay [3] the target is T1, DRD2. This is another data set of the same source.
Assay [4] addresses T1, DRD2. The note with it: HEK-AC5/D2 cells; percentage of dopamine's response, standard error in brackets.
Assay [5] deals with T1, DRD2. The assay can be described thus: cell-based.

T1 sequence (P14416 whole entry, species assumed): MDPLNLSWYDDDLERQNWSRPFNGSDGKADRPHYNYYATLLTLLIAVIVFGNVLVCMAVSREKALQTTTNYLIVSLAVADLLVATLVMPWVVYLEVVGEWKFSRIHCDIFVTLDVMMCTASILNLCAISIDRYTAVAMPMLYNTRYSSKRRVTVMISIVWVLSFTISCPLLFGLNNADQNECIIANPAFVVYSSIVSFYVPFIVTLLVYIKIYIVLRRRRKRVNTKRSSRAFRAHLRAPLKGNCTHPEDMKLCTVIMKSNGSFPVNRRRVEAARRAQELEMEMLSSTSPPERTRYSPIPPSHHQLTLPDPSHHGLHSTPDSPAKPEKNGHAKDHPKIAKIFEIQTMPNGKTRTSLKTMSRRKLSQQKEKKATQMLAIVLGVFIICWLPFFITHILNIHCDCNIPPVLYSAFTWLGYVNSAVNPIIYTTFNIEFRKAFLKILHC

For the molecule `CCCN[C@H]1CCc2nc(N)sc2C1` [Pramipexole, pramipexole dihydrochloride], in assay [1], the “Gαi/o activation Max” value is reported as 87 (±4) %. Also, the “DMR (AUC) Max” value in assay [2] is reported as 98 (±2) %. In addition, in assay [3], the “Gβγ activation Max” value was 98% and 98 (±5) %.
Consider `CCCN(CCC)CCc1cccc2c1CC(=O)N2` [Ropinirole, ropinirole hydrochloride], for which the “Gαi/o activation Max” value in assay [1] (HEK-AC5/D2 cells, percentage of dopamine's response, standard error in brackets) is 81 (±6) %. The “DMR (AUC) Max” value in assay [2] (HEK-D2 cells, percentage of dopamine's response, standard error in brackets) is reported as 100 (±2) %. Moreover, in assay [3] (HEK-AC2/D2 cells, percentage of dopamine's response, standard error in brackets), the “Gβγ activation Max” value is 70 (±4) %. For the same molecule, the “Sensitization Max” value in assay [4] was 126 (±3) %.
`CCCN(CCc1cccs1)[C@H]1CCc2c(O)cccc2C1` [Rotigotine, rotigotine hydrochloride]: the “Gαi/o activation Max” value in assay [1] is 88 (±4) %. Moreover, the “Gβγ activation Max” value in assay [3] is 79% and 79 (±4) %. In assay [5], the EC50 stood at 0.05 nM.

(Values after article PMC4276521 (Biochemical pharmacology, 2014).)
